Data: patent publication US5436246A, “Serotonin receptor agents” (priority 1993, dated 1995)
Structures can show the parent of a compound that is named as a salt. Where two headings read alike, the source gives them in different places.

Experiments:
5HT1A receptor = molecular target: T1, 5HT1A receptor (Rattus norvegicus, UniProt P19327); experiment: 5HT1A receptor binding affinity (procedure of Gozlan et al.)
T1 sequence (P19327 1-422): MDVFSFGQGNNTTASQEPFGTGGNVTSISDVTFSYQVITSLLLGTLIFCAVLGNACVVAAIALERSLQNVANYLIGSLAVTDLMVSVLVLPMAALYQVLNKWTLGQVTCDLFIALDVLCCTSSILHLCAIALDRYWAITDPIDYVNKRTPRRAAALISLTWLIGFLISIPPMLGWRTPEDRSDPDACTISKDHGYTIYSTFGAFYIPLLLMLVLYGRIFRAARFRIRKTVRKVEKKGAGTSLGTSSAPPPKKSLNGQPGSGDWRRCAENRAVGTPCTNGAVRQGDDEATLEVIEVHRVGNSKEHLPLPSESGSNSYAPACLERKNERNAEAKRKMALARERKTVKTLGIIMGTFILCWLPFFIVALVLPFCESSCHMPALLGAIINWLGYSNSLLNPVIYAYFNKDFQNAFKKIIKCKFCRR
Description: In the following examples, the compounds binding affinity for both the 5HT1A receptor and 5HT1D receptors is reported. The compounds affinity for the 5HT1D site was determined by the binding procedure of Peroutka et al as reported in European Journal of Pharmacology, Vol. 163 at pages 133-166 (1989). The compounds affinity for the 5HT1A receptor was determined by the procedure of Gozlan et al., as reported in Nature, Volume 305, at pages 140-142 (1983). Where multiple determinations of the binding affinity have been performed, the average is given followed by the number of determinations in parentheses. Also, the PA2 value for the saphenous vein preparation as described in this application is given, followed by the intrinsic (agonist) activity in parentheses, expressed as a percentage. [drawing 10] […]

5HT1D receptor = molecular target: T2, 5HT1D receptor (Bos taurus, UniProt F1MGM3); experiment: 5HT1D receptor binding affinity (procedure of Peroutka et al.)
T2 construct: from tissue
Description: The compounds affinity for the 5HT1D site was determined by the binding procedure of Peroutka et al as reported in European Journal of Pharmacology, Vol. 163 at pages 133-166 (1989). […] Where multiple determinations of the binding affinity have been performed, the average is given followed by the number of determinations in parentheses.

[1] = acetic acid writhing test (analgesic effect); assay type: in vivo; conditions: Mus musculus, sc, 0.5 h; mice, subcutaneous, 30 minutes before acetic acid i.p. (0.25% v/v, 0.4 ml)
Description: Eide, Neuropharm. 31, 541 (1992). […] One such model is the acetic acid writhing test. In this test, a group containing from 5-10 mice are administered the test compound subcutaneously. Thirty minutes after administration of the test compound, the mice are administered acetic acid intraperitoneally (0.25 % v/v, 0.4 ml). The mice are then observed for squirming and writhing. Analgesics block this squirming and writhing.

5-HT1D receptors = 5-HT1D receptors (Canis lupus familiaris, UniProt P79250); set-up: species or system dog (canine); conditions: for Emax: dog, read-out: intrinsic (agonist) activity, saphenous vein preparation
Description: In the following examples, the compounds binding affinity for both the 5HT1A receptor and 5HT1D receptors is reported. The compounds affinity for the 5HT1D site was determined by the binding procedure of Peroutka et al as reported in European Journal of Pharmacology, Vol. 163 at pages 133-166 (1989). The compounds affinity for the 5HT1A receptor was determined by the procedure of Gozlan et al., as reported in Nature, Volume 305, at pages 140-142 (1983). Where multiple determinations of the binding affinity have been performed, the average is given followed by the number of determinations in parentheses. Also, the PA2 value for the saphenous vein preparation as described in this application is given, followed by the intrinsic (agonist) activity in parentheses, expressed as a percentage. [drawing 10]
We have used canine saphenous vein for studying 5-HT1D receptors which is similar, although not totally identical, to human coronary 5-HT1D receptors (see Humphrey, P. P. A., Feniuk, W., Perren, M. J., Connor, H. E., Oxford, A. W., Coates, I. H. and Butina, D.: GR43175, a selective agonist for the 5-HT1 -like receptor in dog isolated saphenous vein, Br. J. Pharmacol. 94:1123-1132, 1988; Kaumann, A. J.: Human heart 5-HT receptors, Second international symposium on serotonin, from cell biology to pharmacology and therapeutics, Houston, Sep. 15-18, 1992).
Mongrel dogs weighing 12-18 kg were killed by an intravenous injection of an overdose of sodium pentobarbitol. Saphenous veins were isolated, removed, cleaned of surrounding connective tissue, and cut into helical strips in a dish containing Krebs-Henseleit solution with the following composition in mM: NaCl, 110.0; KCl, 4.8; CaCl2, 2.5; KH2 PO4, 1.2; EDTA(NaEDTA), 0.027; and was constantly bubbled with 95% O2 -5% CO2. Unless otherwise specified, the endothelium of the […] was removed by rubbing with a metal rod. The intactness or absence of functional endothelium was checked by the presence or absence of a relaxant effect of acetycholine (10^-5 M) in phenylephrine-contracted tissues (see Furchgott, R. F. and Zawadzki, J. V.: The obligatory role of endothelial cells in the relaxtion of arterial smooth muscle by acetycholine, Nature 288:373-376, 1980). Each muscle strip (3×30 mm) was set up in a tissue bath at 37° C. and loaded with 2 gram tension. Contractility of the tissues was measured isometrically with a Grass FT03 force-displacement transducer and recorded on a Strip chart recorder. The tissues were allowed to stabilize for 2 hours before the experiment was started, during which time they were washed repeatedly. Tissues were contracted with 3.162×10^-6 M phenylephrine and 40 mM KCl, which produced 60-70% of their maximum contractile responses, to condition the tissue. 5-HT dose response experiment was conducted. Test compounds were then incubated with the tissue before a second 5-HT dose response experiment was performed. Data are expressed as the pA2 value, the negative logarithm of the molar concentration of antagonist which produced a 2 fold shift in ED50 values of 5-HT dose response curves (see Van Rossum, J. M.: Cumulative dose-response curve: Technique for the making of dose-response curves in isolated organs and the evaluation of drug parameters, Arch. Int. Pharmacodyn. Ther. 143:299-330, 1963).

[2] = negative log molar concentration of antagonist producing 2 fold shift in ED50 of 5-HT dose response curves, read-out: pA2 (blocking of 5-HT1-like-mediated contraction in canine saphenous vein) (converted)
[3] = average of multiple determinations where number in parentheses is given, read-out: IC50 (5HT1A Binding Affinity)
[4] = average of multiple determinations where number in parentheses is given, read-out: IC50 (5HT1D Binding Affinity)
[5] = canine saphenous vein, printed in parentheses after pA2

T2 sequence (F1MGM3 1-403): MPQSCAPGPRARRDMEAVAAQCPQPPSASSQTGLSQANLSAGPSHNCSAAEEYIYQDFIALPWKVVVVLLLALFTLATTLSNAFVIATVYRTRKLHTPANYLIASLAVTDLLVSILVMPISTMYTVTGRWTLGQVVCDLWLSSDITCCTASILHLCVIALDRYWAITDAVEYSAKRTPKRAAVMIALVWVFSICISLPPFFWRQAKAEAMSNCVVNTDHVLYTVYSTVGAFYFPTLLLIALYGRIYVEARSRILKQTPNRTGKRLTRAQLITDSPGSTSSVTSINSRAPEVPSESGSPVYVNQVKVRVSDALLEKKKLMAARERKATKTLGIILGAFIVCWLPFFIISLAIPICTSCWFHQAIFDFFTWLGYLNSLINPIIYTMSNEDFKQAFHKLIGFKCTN
Chain of 5-HT1D receptors (P79250 whole entry): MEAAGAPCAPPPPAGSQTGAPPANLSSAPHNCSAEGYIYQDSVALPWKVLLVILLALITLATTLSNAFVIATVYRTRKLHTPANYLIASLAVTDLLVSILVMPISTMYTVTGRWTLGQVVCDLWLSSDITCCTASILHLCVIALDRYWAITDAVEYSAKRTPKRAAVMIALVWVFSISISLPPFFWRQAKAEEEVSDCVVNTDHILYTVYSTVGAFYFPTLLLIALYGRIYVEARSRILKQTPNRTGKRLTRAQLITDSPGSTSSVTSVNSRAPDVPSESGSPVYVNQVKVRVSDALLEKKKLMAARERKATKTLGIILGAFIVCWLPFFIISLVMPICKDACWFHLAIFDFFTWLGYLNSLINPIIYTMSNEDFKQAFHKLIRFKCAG

IC50 (5HT1A receptor; [3]) [nM] | IC50 (5HT1D receptor; [4]) [nM] | SMILES | IC50 (5HT1A receptor) [nM] | IC50 (5HT1D receptor) [nM] | Emax (5-HT1D receptors) [%] | Kb (5-HT1D receptors; [2]) [nM] | further results
 |  | Cl.OCc1cc2c(N3CCN(CCc4ccccc4)CC3)cccc2s1 [Example 7, 4[4(2-phenylethyl)-1-piperazinyl]-benzo[b]thiophene-2-methanol monohydrochloride] | 0.6 | 2.4 |  |  | ED50 [1]: 0.61 mg/kg
 |  | CNC(=O)c1cc2c(N3CCN(CCc4ccccc4)CC3)cccc2s1 [Example 10, 4-[4-(2-phenylethyl)-1-piperazinyl]-benzo[b]thiophene-2-(N-methyl)-carboxamide monohydrochloride] | 1 | 1 | 25 | 0.0251 | 
2.3 | 3 | CN(C)C(=O)c1cc2c(N3CCN(CCc4ccccc4)CC3)cccc2s1 [Example 11, 4-[4-(2-phenylethyl)-1-piperazinyl]-benzo[b]thiophene-2-(N,N-dimethyl)-carboxamide monohydrochloride] |  |  |  | 0.977 | Emax (5-HT1D receptors; [5]): 2%
85 | 220 | O=C(Nc1ccccc1)c1cc2c(N3CCN(CCc4ccccc4)CC3)cccc2s1 [Example 12, 4-[4-(2-phenylethyl)-1-piperazinyl]-benzo[b]thiophene2-(N-phenyl)-carboxamide monohydrochloride] |  |  |  | 18.2 | Emax (5-HT1D receptors; [5]): 0%
27 | 31 | O=C(NCc1ccccc1)c1cc2c(N3CCN(CCc4ccccc4)CC3)cccc2s1 [Example 13, 4-[4-(2-phenylethyl)-1-piperazinyl]-benzo[b]thiophene-2-(N-phenylmethyl)-carboxamide monohydrochloride] |  |  |  | 1.74 | Emax (5-HT1D receptors; [5]): 0%
1 | 4.5 | NC(=O)c1cc2c(N3CCN(CCCc4ccccc4)CC3)cccc2s1 [Example 17, 4-[4-(3-phenylpropyl)-1-piperazinyl]-benzo[b]thiophene-2-carboxamide monohydrochloride] |  |  |  | 16.6 | 
53 | 411 | CCOC(=O)c1cc2c(N3CCN(CCc4ccc(Cl)cc4)CC3)cccc2s1 [Example 18, ethyl-4-[4-[2-(4-chlorophenyl)ethyl]-1-piperazinyl]-benzo[b]thiophene-2-carboxylate monohydrochloride] |  |  |  | 309 | 
 |  | N#Cc1cc2c(N3CCN(CCc4ccc(Cl)cc4)CC3)cccc2s1 [Example 20, 4-[4-[2-(4-chlorophenyl)ethyl]-1-piperazinyl]-benzo[b]thiophene-2-nitrile monohydrochloride] | 13 | 31 | 34 |  | Kb (5-HT1D receptors): 42.7 nM
 |  | N#Cc1cc2c(N3CCN(CCc4ccc(F)cc4)CC3)cccc2s1 [Example 24, 4-[4-[2-(4-fluorophenyl)ethyl]-1-piperazinyl]-benzo[b]thiophene-2-nitrile monohydrochloride] | 10 | 21 | 9 |  | Kb (5-HT1D receptors): 6.76 nM
 |  | COCc1cc2c(N3CCN(CCc4ccccc4)CC3)cccc2s1 [Example 37, 4-[4-(2-phenylethyl)-1-piperazinyl]-benzo[b]thiophene-2-(O-methyl)-methanol hydrochloride] | 5 | 9 | 0 | 9.33 | 
2.4 | 16 | CON(C)C(=O)c1cc2c(N3CCN(CCc4ccccc4)CC3)cccc2s1 [Example 40, 4-[4-(2-phenylethyl)-1-piperazinyl]-benzo[b]thiophene-2-(N-methyl-N-methoxy)-carboxamide hydrochloride] |  |  |  | 3.16 | Emax (5-HT1D receptors; [5]): 3%
 |  | CC(C)(O)c1cc2c(N3CCN(CCc4ccccc4)CC3)cccc2s1 [Example 41, 2-[4-[4-(2-phenylethyl)-1-piperazinyl]benzo[b]thiophene-2-]-(2-propanol) hydrochloride hemihydrate] | 4 | 16 | 16 | 36.3 | 
 |  | CC(=O)c1cc2c(N3CCN(CCc4ccccc4)CC3)cccc2s1 [Example 42, 1-[4-(4-phenethyl-piperazin-1-yl)-benzo[b]thiophen-2-yl]ethanone hydrochloride] |  | 22 | 1 |  | Kb (5-HT1D receptors): 13.5 nM
 |  | COCc1cc2c(N3CCN(CCc4ccc(F)cc4)CC3)cccc2s1 [Example 46, 4-[4-(2-(4-fluorophenyl)-ethyl)-1-piperazinyl]benzo [b]thiophene 2-methoxymethyl hydrochloride, 0.2 hydrate] |  |  | 5 |  | IC50 (5HT1A receptor; read-out: IC50 (5HT1A Binding Affinity), average of multiple determinations where number in parentheses is given): 4 nM; IC50 (5HT1D receptor; read-out: IC50 (5HT1D Binding Affinity), average of multiple determinations where number in parentheses is given): 17 nM; pA2 (blocking of 5-HT1-like-mediated contraction in canine saphenous vein) (5-HT1D receptors; negative log molar concentration of antagonist producing 2 fold shift in ED50 of 5-HT dose response curves): 7.98

SMILES | IC50 (5HT1A receptor; [3]) [nM] | IC50 (5HT1D receptor; [4]) [nM] | IC50 (5HT1A receptor) [nM] | IC50 (5HT1D receptor) [nM] | Emax (5-HT1D receptors) [%] | Kb (5-HT1D receptors; [2]) [nM] | further results
CCOC(=O)c1cc2c(N3CCN(CCc4ccc(F)cc4)CC3)cccc2s1 [Example 22, ethyl-4-[4-[2-(4-fluorophenyl)ethyl]-1-piperazinyl]-benzo[b]thiophene-2-carboxylate monohydrochloride] | 7.4 | 120 |  |  | 0 | 29.5 | 
CCCN1CCN(c2cccc3sc(C(=O)OCC)cc23)CC1 [Example 34, Ethyl 4-[(4-propyl)-1-piperazinyl]benzo[b]thiophene-2-carboxylate hydrochloride] | 104 | 416 |  |  | 12 | 166 | 
O=C(c1cc2c(N3CCN(CCc4ccccc4)CC3)cccc2s1)N1CCCCC1 [Example 56, [4-(4-phenethyl-piperazin-1-yl)-benzo[b]thiophen-2-yl]-piperidin-1-yl methanone hydrochloride] |  | 135 |  |  | 2 | 112 | 
O=C(c1cc2c(N3CCN(CCc4ccccc4)CC3)cccc2s1)N1CCCC1 [Example 57, [4-(4-phenethyl-piperazin-1-yl)-benzo[b]thiophen-2-yl]-pyrrolidin-1-yl methanone hydrochloride] |  | 25 |  |  | 0 | 4.27 | 
